Measurements as given in ChEMBL document CHEMBL1201862, “PubChem BioAssay data set” (2004).
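Where inhibition never reached the appropriate level, the endpoint shown equals the highest concentration tested. Otherwise, values were interpolated linearly from a five-concentration, 48-hour dose response in 96-well plates. At the GI50, growth is halved.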 The source made the active and inactive calls. Cut-off read from the data, not from the text of the source: active = GI50 up to about 1.1 µM and inactive = higher.

Key:
Assay in all cases: NCI tumour cell line growth inhibition, 48 h
MCF7 = system: MCF7
A498 = system: A498
HOP-92 = system: HOP-92
EKVX = system: EKVX
NCI/ADR-RES = system: NCI/ADR-RES
IGROV-1 = system: IGROV-1
M14 = system: M14
HOP-62 = system: HOP-62
SW-620 = system: SW-620
MDA-MB-435 = system: MDA-MB-435
UACC-257 = system: UACC-257
OVCAR-5 = system: OVCAR-5
RXF 393 = system: RXF 393
K562 = system: K562
OVCAR-8 = system: OVCAR-8
HCT-15 = system: HCT-15
NCI-H522 = system: NCI-H522
OVCAR-3 = system: OVCAR-3
A549 = system: A549
TK-10 = system: TK-10
DU-145 = system: DU-145
HT-29 = system: HT-29
SF-268 = system: SF-268
COLO 205 = system: COLO 205
HCT-116 = system: HCT-116
OVCAR-4 = system: OVCAR-4
SK-OV-3 = system: SK-OV-3
T47D = system: T47D
SNB-19 = system: SNB-19
NCI-H23 = system: NCI-H23
Malme-3M = system: Malme-3M
HCC 2998 = system: HCC 2998
SF-539 = system: SF-539
KM12 = system: KM12
BT-549 = system: BT-549
MDA-N = system: MDA-N
HL-60 = system: HL-60
CAKI-1 = system: CAKI-1
SK-MEL-28 = system: SK-MEL-28
SF-295 = system: SF-295
UO-31 = system: UO-31
786-0 = system: 786-0
UACC-62 = system: UACC-62
RPMI-8226 = system: RPMI-8226
MDA-MB-231 = system: MDA-MB-231
MOLT-4 = system: MOLT-4
SNB-75 = system: SNB-75
NCI-H226 = system: NCI-H226
SN12C = system: SN12C
U-251 = system: U-251
Hs-578T = system: Hs-578T
NCI-H460 = system: NCI-H460
SK-MEL-2 = system: SK-MEL-2
SK-MEL-5 = system: SK-MEL-5
PC-3 = system: PC-3
CCRF-CEM = system: CCRF-CEM
LOX IMVI = system: LOX IMVI
ACHN = system: ACHN
SR = system: SR

SMILES: CC1=NN=C(C)C1/N=N/c1ccc2[nH]c(C)nc2c1
- GI50 (MCF7): 28.7 µM (inactive)
- GI50 (A498): 8.39 µM (inactive)
- GI50 (HOP-92): 14.8 µM (inactive)
- GI50 (EKVX): 18.7 µM (inactive)
- GI50 (NCI/ADR-RES): 38.4 µM (inactive)
- GI50 (IGROV-1): 5.62 µM (inactive)
- GI50 (M14): 23.1 µM (inactive)
- GI50 (HOP-62): 26.4 µM (inactive)
- GI50 (SW-620): 25.3 µM (inactive)
- GI50 (MDA-MB-435): 16.2 µM (inactive)
- GI50 (UACC-257): 47.6 µM (inactive)
- GI50 (OVCAR-5): 26.2 µM (inactive)
- GI50 (RXF 393): 5.16 µM (inactive)
- GI50 (K562): > 69.2 µM (inactive)
- GI50 (OVCAR-8): 15.9 µM (inactive)
- GI50 (HCT-15): 6.68 µM
- GI50 (NCI-H522): 6.95 µM (inactive)
- GI50 (OVCAR-3): 13.4 µM (inactive)
- GI50 (A549): 27.4 µM (inactive)
- GI50 (TK-10): 14.1 µM (inactive)
- GI50 (DU-145): 9.23 µM (inactive)
- GI50 (HT-29): 16 µM (inactive)
- GI50 (SF-268): 10.9 µM (inactive)
- GI50 (COLO 205): 29.6 µM (inactive)
- GI50 (HCT-116): 10.9 µM (inactive)
- GI50 (OVCAR-4): 58.1 µM (inactive)
- GI50 (SK-OV-3): 5.27 µM (inactive)
- GI50 (T47D): 5.11 µM (inactive)
- GI50 (SNB-19): > 100 µM (inactive)
- GI50 (NCI-H23): 37.3 µM (inactive)
- GI50 (Malme-3M): 6.85 µM (inactive)
- GI50 (HCC 2998): 58.7 µM (inactive)
- GI50 (SF-539): 26.9 µM (inactive)
- GI50 (KM12): 35.4 µM (inactive)
- GI50 (BT-549): 20.8 µM (inactive)
- GI50 (MDA-N): 19.8 µM (inactive)
- GI50 (HL-60): 10.8 µM (inactive)
- GI50 (CAKI-1): 5.02 µM (inactive)
- GI50 (SK-MEL-28): 35.6 µM (inactive)
- GI50 (SF-295): 17.9 µM (inactive)
- GI50 (UO-31): 19.2 µM (inactive)
- GI50 (786-0): 34.4 µM (inactive)
- GI50 (UACC-62): 14.9 µM (inactive)
- GI50 (RPMI-8226): 13.7 µM (inactive)
- GI50 (MDA-MB-231): 28.6 µM (inactive)
- GI50 (MOLT-4): 13.7 µM (inactive)
- GI50 (SNB-75): 22.9 µM (inactive)
- GI50 (NCI-H226): 3.84 µM (inactive)
- GI50 (SN12C): > 52 µM (inactive)
- GI50 (U-251): 34.6 µM (inactive)
- GI50 (Hs-578T): 5.36 µM (inactive)
- GI50 (NCI-H460): 11 µM (inactive)
- GI50 (SK-MEL-2): 8.07 µM (inactive)
- GI50 (SK-MEL-5): 18.2 µM (inactive)
- GI50 (PC-3): 27.7 µM (inactive)
- GI50 (CCRF-CEM): 32.3 µM (inactive)
- GI50 (LOX IMVI): 9.1 µM (inactive)
- GI50 (ACHN): 7.46 µM (inactive)
- GI50 (SR): 5.41 µM (inactive)

SMILES: CC(C)[Si](OC1=C(C(=O)Nc2ccccc2Cl)CCCCC1)(C(C)C)C(C)C
- GI50 (MCF7): > 100 µM (inactive)
- GI50 (A498): > 100 µM (inactive)
- GI50 (HOP-92): > 100 µM (inactive)
- GI50 (EKVX): > 100 µM (inactive)
- GI50 (NCI/ADR-RES): > 100 µM (inactive)
- GI50 (IGROV-1): > 100 µM (inactive)
- GI50 (M14): > 100 µM (inactive)
- GI50 (HOP-62): > 100 µM (inactive)
- GI50 (SW-620): > 100 µM (inactive)
- GI50 (MDA-MB-435): > 100 µM (inactive)
- GI50 (UACC-257): > 100 µM (inactive)
- GI50 (OVCAR-5): 97.9 µM (inactive)
- GI50 (RXF 393): > 100 µM (inactive)
- GI50 (K562): > 100 µM (inactive)
- GI50 (OVCAR-8): > 100 µM (inactive)
- GI50 (HCT-15): > 100 µM
- GI50 (NCI-H522): > 100 µM (inactive)
- GI50 (OVCAR-3): > 100 µM (inactive)
- GI50 (A549): > 100 µM (inactive)
- GI50 (TK-10): > 100 µM (inactive)
- GI50 (DU-145): > 100 µM (inactive)
- GI50 (HT-29): > 100 µM (inactive)
- GI50 (SF-268): > 100 µM (inactive)
- GI50 (COLO 205): > 100 µM (inactive)
- GI50 (HCT-116): > 100 µM (inactive)
- GI50 (OVCAR-4): > 100 µM (inactive)
- GI50 (SK-OV-3): > 100 µM (inactive)
- GI50 (T47D): > 100 µM (inactive)
- GI50 (SNB-19): > 100 µM (inactive)
- GI50 (NCI-H23): > 100 µM (inactive)
- GI50 (Malme-3M): > 100 µM (inactive)
- GI50 (HCC 2998): > 100 µM (inactive)
- GI50 (SF-539): > 100 µM (inactive)
- GI50 (KM12): > 100 µM (inactive)
- GI50 (BT-549): > 100 µM (inactive)
- GI50 (MDA-N): > 100 µM (inactive)
- GI50 (HL-60): 1.97 µM (inactive)
- GI50 (CAKI-1): > 100 µM (inactive)
- GI50 (SK-MEL-28): > 100 µM (inactive)
- GI50 (SF-295): > 100 µM (inactive)
- GI50 (UO-31): > 100 µM (inactive)
- GI50 (786-0): > 100 µM (inactive)
- GI50 (UACC-62): > 100 µM (inactive)
- GI50 (RPMI-8226): > 100 µM (inactive)
- GI50 (MDA-MB-231): > 100 µM (inactive)
- GI50 (MOLT-4): > 100 µM (inactive)
- GI50 (SNB-75): > 78.2 µM (inactive)
- GI50 (NCI-H226): > 100 µM (inactive)
- GI50 (SN12C): > 100 µM (inactive)
- GI50 (U-251): > 100 µM (inactive)
- GI50 (Hs-578T): > 100 µM (inactive)
- GI50 (NCI-H460): > 100 µM (inactive)
- GI50 (SK-MEL-2): > 100 µM (inactive)
- GI50 (SK-MEL-5): > 100 µM (inactive)
- GI50 (PC-3): > 100 µM (inactive)
- GI50 (CCRF-CEM): 0.462 µM (active)
- GI50 (LOX IMVI): > 100 µM (inactive)
- GI50 (ACHN): > 100 µM (inactive)
- GI50 (SR): > 100 µM (inactive)

SMILES: NCCCc1c(-c2ccccc2)[nH]c(N)nc1=O
- GI50 (MCF7): > 100 µM (inactive)
- GI50 (A498): > 100 µM (inactive)
- GI50 (HOP-92): > 100 µM (inactive)
- GI50 (EKVX): > 100 µM (inactive)
- GI50 (NCI/ADR-RES): > 100 µM (inactive)
- GI50 (IGROV-1): > 100 µM (inactive)
- GI50 (M14): > 100 µM (inactive)
- GI50 (HOP-62): > 100 µM (inactive)
- GI50 (SW-620): > 100 µM (inactive)
- GI50 (MDA-MB-435): > 100 µM (inactive)
- GI50 (UACC-257): > 100 µM (inactive)
- GI50 (OVCAR-5): > 100 µM (inactive)
- GI50 (RXF 393): > 100 µM (inactive)
- GI50 (K562): > 100 µM (inactive)
- GI50 (OVCAR-8): > 100 µM (inactive)
- GI50 (HCT-15): > 100 µM
- GI50 (NCI-H522): > 100 µM (inactive)
- GI50 (OVCAR-3): > 100 µM (inactive)
- GI50 (A549): > 100 µM (inactive)
- GI50 (TK-10): > 100 µM (inactive)
- GI50 (DU-145): > 100 µM (inactive)
- GI50 (HT-29): > 100 µM (inactive)
- GI50 (SF-268): > 100 µM (inactive)
- GI50 (COLO 205): > 100 µM (inactive)
- GI50 (HCT-116): > 100 µM (inactive)
- GI50 (OVCAR-4): > 100 µM (inactive)
- GI50 (SK-OV-3): > 100 µM (inactive)
- GI50 (T47D): > 100 µM (inactive)
- GI50 (SNB-19): > 100 µM (inactive)
- GI50 (NCI-H23): > 100 µM (inactive)
- GI50 (Malme-3M): > 100 µM (inactive)
- GI50 (HCC 2998): > 100 µM (inactive)
- GI50 (SF-539): > 100 µM (inactive)
- GI50 (KM12): > 100 µM (inactive)
- GI50 (BT-549): > 100 µM (inactive)
- GI50 (MDA-N): > 100 µM (inactive)
- GI50 (HL-60): > 100 µM (inactive)
- GI50 (CAKI-1): > 100 µM (inactive)
- GI50 (SK-MEL-28): > 100 µM (inactive)
- GI50 (SF-295): > 100 µM (inactive)
- GI50 (UO-31): > 100 µM (inactive)
- GI50 (786-0): > 100 µM (inactive)
- GI50 (UACC-62): > 100 µM (inactive)
- GI50 (RPMI-8226): > 100 µM (inactive)
- GI50 (MDA-MB-231): > 100 µM (inactive)
- GI50 (MOLT-4): > 100 µM (inactive)
- GI50 (SNB-75): > 100 µM (inactive)
- GI50 (NCI-H226): > 100 µM (inactive)
- GI50 (SN12C): > 100 µM (inactive)
- GI50 (U-251): > 100 µM (inactive)
- GI50 (Hs-578T): > 100 µM (inactive)
- GI50 (NCI-H460): > 100 µM (inactive)
- GI50 (SK-MEL-2): > 100 µM (inactive)
- GI50 (SK-MEL-5): > 100 µM (inactive)
- GI50 (PC-3): > 100 µM (inactive)
- GI50 (CCRF-CEM): > 100 µM (inactive)
- GI50 (LOX IMVI): > 100 µM (inactive)
- GI50 (ACHN): > 100 µM (inactive)
- GI50 (SR): > 100 µM (inactive)
